# Laboratory results as given in patent publication US9321748B2, “Aminopyridine derived compounds as LRRK2 inhibitors” (H. Lundbeck A/S, priority 2013, dated 2016).
# How the values were obtained:
# LRRK2 G2019S = LRRK2 G2019S (Homo sapiens (Human), UniProt Q5S007, G2019S); assay: LRRK2 G2019S kinase activity assay (LanthaScreen TR-FRET); format: biochemical; conditions: 250 pM LRRK2 G2019S kinase, 1.3 mM ATP, 0.4 μM fluorescein-LRRKtide
# Description: (§1) LRRK2 Wild-Type and G2019S Kinase Activity Assay.
# (§2) LRRK2 kinase activity is measured using a LanthaScreen kinase activity assay available from Invitrogen (Life Technologies Corporation). […] The phosphorylated peptide is recognized by a terbium-labelled phospho-specific anti-LRRKtide antibody and, subsequently, the phosphorylated LRRKtide can be quantified by the extent of TR-FRET between the terbium donor and fluorescein acceptor.
# (§3) The LRRK2 kinase is obtained from Invitrogen (Life Technologies Corporation) and comprises residue 970 to 2527 of the full length human wildtype LRRK2 kinase or a similar sequence with the G2019S mutation. As discussed above, this mutation increases the kinase activity relative to the wild type. The kinase reactions are performed in a […] volume in 384-well plates. The kinase reaction buffer consists of 50 mM Tris pH 8.5, 0.01% BRIJ-35, 10 mM MgCl2, 1 mM EGTA, and 2 mM DTT.
# (§4) The reaction mixture (20 μl total volume) is incubated for 2 hours at 30° C. before the reaction is terminated by addition of 10 mM EDTA and 1 nM terbium-labelled anti-phospho-LRRKtide antibody (final volume […]). The mixture is further incubated for 30 minutes at RT. TR-FRET is measured by excitation of the terbium-donor with 340 nm light and subsequent (delay time 100 μs) measurement of terbium and fluorescein emission at 495 nm and 520 nm, respectively, over a time window of 1000 μs. The measurement is repeated 10 times for fluorescein and 10 times for terbium emission with a 2000 μs time window between repeats. TR-FRET measurements are performed on a […] plate. The TR-FRET signal is calculated as the emission-ratio at 520 nm over 495 nm.
# (§5) Test compound potency (IC50) was estimated by nonlinear regression using the sigmoidal dose-response (variable slope) using Xlfit 4 (IDBS, Guildford, Surrey, UK, model 205). y=(A+((B−A)/(1+((C/x)^D)))) where y is the normalized TR-TRET ratio measurement for a given concentration of test compound, x is the concentration of test compound, A is the estimated efficacy (% inhibition) at infinite compound dilution, and B is the maximal efficacy (% inhibition). C is the IC50 value and D is the Hill slope coefficient. IC50 estimates were obtained from independent experiment and the logarithmic average was calculated.
# LRRK2 WT = LRRK2 WT (Homo sapiens (Human), UniProt Q5S007); assay: LRRK2 wild-type kinase activity assay (LanthaScreen TR-FRET); format: biochemical; conditions: 1 nM LRRK2 WT kinase, 1.3 mM ATP, 0.4 μM fluorescein-LRRKtide
# Description: as §1, §2, §3, §4, §5
# Sequence of LRRK2 G2019S (Q5S007 970-2527 G2019S): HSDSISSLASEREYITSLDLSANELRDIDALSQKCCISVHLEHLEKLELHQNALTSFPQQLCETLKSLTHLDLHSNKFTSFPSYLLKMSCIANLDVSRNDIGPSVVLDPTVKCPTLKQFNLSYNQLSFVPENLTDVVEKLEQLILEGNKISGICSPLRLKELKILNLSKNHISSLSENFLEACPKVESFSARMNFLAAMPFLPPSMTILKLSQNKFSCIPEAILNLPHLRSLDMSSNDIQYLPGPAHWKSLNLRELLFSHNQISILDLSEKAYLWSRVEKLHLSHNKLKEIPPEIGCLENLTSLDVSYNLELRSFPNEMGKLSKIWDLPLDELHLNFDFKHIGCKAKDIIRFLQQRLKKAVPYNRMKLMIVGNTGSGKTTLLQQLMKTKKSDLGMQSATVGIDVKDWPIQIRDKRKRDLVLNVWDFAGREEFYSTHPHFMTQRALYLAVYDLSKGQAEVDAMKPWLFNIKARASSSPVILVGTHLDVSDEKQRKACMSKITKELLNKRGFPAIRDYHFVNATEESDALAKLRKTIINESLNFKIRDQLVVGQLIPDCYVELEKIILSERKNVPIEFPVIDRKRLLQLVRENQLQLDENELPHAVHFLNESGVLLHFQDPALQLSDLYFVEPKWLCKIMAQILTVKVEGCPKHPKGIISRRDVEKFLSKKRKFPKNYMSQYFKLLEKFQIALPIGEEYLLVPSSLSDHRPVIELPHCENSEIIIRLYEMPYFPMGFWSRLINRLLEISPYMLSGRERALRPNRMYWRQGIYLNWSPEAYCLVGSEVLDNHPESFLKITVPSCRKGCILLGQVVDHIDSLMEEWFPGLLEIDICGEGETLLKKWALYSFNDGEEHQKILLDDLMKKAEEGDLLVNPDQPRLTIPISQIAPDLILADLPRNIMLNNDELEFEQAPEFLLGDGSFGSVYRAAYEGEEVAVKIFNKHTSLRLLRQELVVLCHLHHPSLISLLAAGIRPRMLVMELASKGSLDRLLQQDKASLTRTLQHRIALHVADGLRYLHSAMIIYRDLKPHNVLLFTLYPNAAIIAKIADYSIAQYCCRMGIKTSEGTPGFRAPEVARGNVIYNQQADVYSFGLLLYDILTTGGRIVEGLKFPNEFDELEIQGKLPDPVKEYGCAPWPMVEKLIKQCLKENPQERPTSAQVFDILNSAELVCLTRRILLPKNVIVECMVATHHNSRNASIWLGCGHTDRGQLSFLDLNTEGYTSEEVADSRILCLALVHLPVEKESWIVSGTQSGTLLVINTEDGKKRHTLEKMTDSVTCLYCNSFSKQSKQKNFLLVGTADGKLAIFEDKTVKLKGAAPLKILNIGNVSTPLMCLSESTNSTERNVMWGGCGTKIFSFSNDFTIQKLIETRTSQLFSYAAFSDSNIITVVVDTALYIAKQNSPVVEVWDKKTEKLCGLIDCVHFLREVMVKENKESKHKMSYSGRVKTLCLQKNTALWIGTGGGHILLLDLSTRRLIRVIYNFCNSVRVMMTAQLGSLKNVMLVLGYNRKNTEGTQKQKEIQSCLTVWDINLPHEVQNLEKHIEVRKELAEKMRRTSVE
# Sequence of LRRK2 WT (Q5S007 970-2527): as the sequence (Q5S007 970-2527 G2019S) above, with S1050G counted along it
IC50 (LRRK2 G2019S) [nM],IC50 (LRRK2 WT) [nM],Compound
110,99,"Cc1cc(-c2cnc(N)c(-c3cn(C(C)C)nn3)c2)ccc1C(=O)N1CCOCC1 [Example 20, [4-[6-amino-5-(1-isopropyltriazol-4-yl)-3-pyridyl]-2-methyl-phenyl]-morpholino-methanone]"
860,3600,"Cc1ccc(-c2cnc(N)c(-c3nnc(C4CCN(C)CC4)o3)c2)cc1 [Example 4, 3-[5-(1-Methyl-piperidin-4-yl)-[1,3,4]oxadiazol-2-yl]-5-p-tolyl-pyridin-2-ylamine]"
380,2200,"CN1CCc2cc(-c3cnc(N)c(-c4nnc(C5CCNCC5)o4)c3)ccc21 [Example 5, 5-(1-Methyl-2,3-dihydro-1H-indol-5-yl)-3-(5-piperidin-4-yl-[1,3,4]oxadiazol-2-yl)-pyridin-2-ylamine]"
880,2200,"COc1cccc(-c2cnc(N)c(-c3nnc(C4CCN(C)CC4)o3)c2)c1 [Example 8, 5-(3-Methoxy-phenyl)-3-[5-(1-methyl-piperidin-4-yl)-[1,3,4]oxadiazol-2-yl]-pyridin-2-ylamine]"
1000,570,"Nc1ncc(-c2ccc3[nH]ccc3c2)cc1-c1nnc(C2CC2)o1 [Example 2, 3-(5-Cyclopropyl-[1,3,4]oxadiazol-2-yl)-5-(1H-indol-5-yl)-pyridin-2-ylamine]"
520,670,"CC(C)n1cc(-c2cc(-c3ccc(CC(=O)N4CCOCC4)cc3)cnc2N)nn1 [Example 30, 2-[4-[6-amino-5-(1-isopropyltriazol-4-yl)-3-pyridyl]phenyl]-1-morpholino-ethanone]"
350,620,"CC(C)n1cc(-c2cc(-c3ccc4c(c3)CCN4C)cnc2N)nn1 [Example 10, 3-(1-Isopropyl-1H-[1,2,3]triazol-4-yl)-5-(1-methyl-2,3-dihydro-1H-indol-5-yl)-pyridin-2-ylamine]"
430,370,"CC(C)n1cc(-c2cc(-c3ccc(C(=O)N4CCOCC4)cc3)cnc2N)nn1 [Example 28, [4-[6-Amino-5-(1-isopropyltriazol-4-yl)-3-pyridyl]phenyl]-morpholino-methanone]"
220,320,"CC(C)n1cc(-c2cc(-c3ccc(CN4CCOCC4)c(Cl)c3)cnc2N)nn1 [Example 23, 5-[3-Chloro-4-(morpholinomethyl)phenyl]-3-(1-isopropyltriazol-4-yl)pyridin-2-amine]"
240,260,Cc1cc(-c2cnc(N)c(-c3cn(C(C)C)nn3)c2)ccc1CN1CCOCC1 [Example 21]
340,570,"CC(C)n1cc(-c2nc(-c3ccc4c(c3)CCN4C)cnc2N)nn1 [Example 11, 3-(1-Isopropyl-1H-[1,2,3]triazol-4-yl)-5-(1-methyl-2,3-dihydro-1H-indol-5-yl)-pyrazin-2-ylamine]"
290,290,"CC(C)n1cc(-c2cc(-c3ccc(C(=O)N4CCOCC4)c(Cl)c3)cnc2N)nn1 [Example 22, [4-[6-amino-5-(1-isopropyltriazol-4-yl)-3-pyridyl]-2-chloro-phenyl]-morpholino-methanone]"
950,650,"CC(C)n1cc(-c2cc(-c3cccc(C(=O)N4CCOCC4)c3)cnc2N)nn1 [Example 25, [3-[6-Amino-5-(1-isopropyltriazol-4-yl)-3-pyridyl]phenyl]-morpholino-methanone]"
1000,3300,"COc1cccc(-c2cnc(N)c(-c3nnc(C4CCNCC4)o3)c2)c1 [Example 7, 5-(3-Methoxy-phenyl)-3-(5-piperidin-4-yl-[1,3,4]oxadiazol-2-yl)-pyridin-2-ylamine]"
690,490,"CC(C)n1cc(-c2cc(-c3cc(Cl)cc(C(=O)N4CCOCC4)c3)cnc2N)nn1 [Example 26, [3-[6-Amino-5-(1-isopropyltriazol-4-yl)-3-pyridyl]-5-chloro-phenyl]-morpholino-methanone]"
370,200,"CC(C)n1cc(-c2cc(-c3ccc(CN4CCOCC4)c(F)c3)cnc2N)nn1 [Example 15, 5-(3-fluoro-4-(morpholinomethyl)phenyl)-3-(1-isopropyl-1H-1,2,3-triazol-4-yl)pyridin-2-amine]"
95,91,"COc1cc(-c2cnc(N)c(-c3cn(C(C)C)nn3)c2)ccc1C(=O)N1CCOCC1 [Example 17, [4-[6-amino-5-(1-isopropyltriazol-4-yl)-3-pyridyl]-2-methoxy-phenyl]-morpholino-methanone]"
500,370,"CC(C)n1cc(-c2cc(-c3cccc(CN4CCOCC4)c3)cnc2N)nn1 [Example 24, 3-(1-Isopropyltriazol-4-yl)-5-[3-(morpholinomethyl)phenyl]pyridin-2-amine]"
510,580,"CC(C)n1cc(-c2cc(-c3ccc(C(=O)N4CCOCC4)c(F)c3)cnc2N)nn1 [Example 16, (4-(6-amino-5-(1-isopropyl-1H-1,2,3-triazol-4-yl)pyridin-3-yl)-2-fluorophenyl)(morpholino)methanone]"
86,93,"COc1cc(-c2cnc(N)c(-c3cn(C(C)C)nn3)c2)ccc1CN1CCOCC1 [Example 18, 3-(1-isopropyltriazol-4-yl)-5-[3-methoxy-4-(morpholinomethyl)phenyl]pyridin-2-amine]"
880,1000,"CC(C)n1cc(-c2cc(-c3ccc(F)c(CN4CCOCC4)c3)cnc2N)nn1 [Example 19, 5-[4-fluoro-3-(morpholinomethyl)phenyl]-3-(1-isopropyltriazol-4-yl)pyridin-2-amine]"

Compound,IC50 (LRRK2 G2019S) [nM],IC50 (LRRK2 WT) [nM]
"CC(C)n1cc(-c2cc(-c3ccc(N4CCOCC4)cc3)cnc2N)nn1 [Example 13, 3-(1-Isopropyl-1H-[1,2,3]triazol-4-yl)-5-(4-morpholin-4-yl-phenyl)-pyridin-2-ylamine]",280,340
"Nc1ncc(-c2ccc(CN3CCOCC3)cc2)cc1-c1nnc(C2CC2)o1 [Example 6, 3-(5-Cyclopropyl-[1,3,4]oxadiazol-2-yl)-5-(4-morpholin-4-ylmethyl-phenyl)-pyridin-2-ylamine]",390,490
"CC(C)n1cc(-c2cc(-c3ccc4c(ccn4C)c3)cnc2N)nn1 [Example 9, 3-(1-Isopropyl-1H-[1,2,3]triazol-4-yl)-5-(1-methyl-1H-indol-5-yl)-pyridin-2-ylamine]",540,550
"CC(C)n1cc(-c2cc(-c3ccc(CCN4CCOCC4)cc3)cnc2N)nn1 [Example 14, 3-(1-Isopropyl-1H-[1,2,3]triazol-4-yl)-5-[4-(2-morpholin-4-yl-ethyl)-phenyl]-pyridin-2-ylamine]",340,600
"CN1CCc2cc(-c3cnc(N)c(-c4nnc(C5CC5)o4)c3)ccc21 [Example 3, 3-(5-Cyclopropyl-[1,3,4]oxadiazol-2-yl)-5-(1-methyl-2,3-dihydro-1H-indol-5-yl)-pyridin-2-ylamine]",710,970
"CC(C)n1cc(-c2cc(-c3ccc(CN4CCOCC4)cc3)cnc2N)nn1 [Example 12, 3-(1-Isopropyl-H-[1,2,3]triazol-4-yl)-5-(4-morpholin-4-ylmethyl-phenyl)-pyridin-2-ylamine]",160,300
"CC(C)c1nnc(-c2cc(-c3ccc4[nH]ccc4c3)cnc2N)o1 [Example 1, 5-(1H-Indol-5-yl)-3-(5-isopropyl-[1,3,4]oxadiazol-2-yl)-pyridin-2-ylamine]",910,
